Measurements reported in the Deep4Chem optical property database.
“And” between values parts separate entries of the source, which are not always exact repeats. Equal entries are not always repeated. One block for each compound: values may come before it.

Experiment: solvent given as SMILES
[1] = in c1cc(-n2c3ccccc3c3ccccc32)cc(-n2c3ccccc3c3ccccc32)c1

- emission maximum (in CC#N): 509 nm
SMILES: Oc1ccc2ccccc2c1/C=N/c1cc2ccccc2cc1/N=C/c1c(O)ccc2ccccc12

- emission maximum (in ClCCl): 457 nm
- emission maximum [1]: 438 nm
SMILES: c1ccc(N(c2ccccc2)c2ccc(-c3ccc4c(c3)C3(c5ccccc5Sc5ccccc53)c3cc(-c5ccc(N(c6ccccc6)c6ccccc6)cc5)ccc3-4)cc2)cc1

- emission maximum (in ClCCl): 566 nm
SMILES: COc1ccc2cc(C#CC3=C4CCc5ccccc5C4=[O+][B-](F)(F)O3)ccc2c1

- emission maximum (in ClCCl): 449 nm
SMILES: CC(C)(C)c1ccc(-c2cc(-c3ccc(-c4cc(-c5ccc(C(C)(C)C)cc5)c(C(=O)NCc5ccccc5)s4)s3)sc2C(=O)NCc2ccccc2)cc1

- emission maximum (in ClCCl): 455 nm
SMILES: c1ccc(N2N=C(c3cccc4ccccc34)CC2c2ccc3ccc4cccc5ccc2c3c45)cc1 (stereo unspecified)

SMILES: COc1ccc(-c2ccc3c(c2)c2cc(-c4ccc(OC)cc4)ccc2n3-c2ccc(C(=O)c3ccc4sc5ccccc5c4c3)cc2)cc1
- emission maximum (in Cc1ccccc1): 460.87 nm
- emission maximum [1]: 462 nm

- emission maximum (in CC#N): 682 nm
SMILES: F[B-]1(F)n2c(-c3ccccc3)cc(-c3ccccn3)c2N=C2C(c3ccccn3)=CC(c3ccccc3)=[N+]21

- emission maximum (in CO): 430 nm
SMILES: Cc1ccc(-c2nc(-c3ccccc3O)[nH]c2-c2ccc(C)cc2)cc1

- emission maximum (in C1CCOC1): 424 nm
SMILES: CCCCn1c2ccc(-c3cccs3)cc2c2c1c1c3ccc(-c4cccs4)cc3n(CCCC)c1c1c3ccc(-c4cccs4)cc3n(CCCC)c21

- emission maximum (in ClCCl): 616 nm
SMILES: O=C1c2ccccc2-c2nc3c4ccccc4c4ccccc4c3n21

- emission maximum (in CCO): 435 nm
- emission maximum (in ClCCl): 406 nm
- emission maximum (in O): 577 nm
SMILES: Oc1ccc(-c2ccco2)cc1-c1nc2ccccc2s1

- emission maximum (in ClCCl): 734 nm
SMILES: COc1ccc(C2=[N+]3C(=Nc4c(-c5ccc6ccccc6c5)c(Br)c(-c5ccc(OC)cc5)n4[B-]3(F)F)C(c3ccc4ccccc4c3)=C2Br)cc1

- emission maximum (in O): 663 nm
SMILES: COc1ccc(C2=C3C=CC(=[N+](C)C)C=C3[Si](C)(C)c3cc(N(C)C)ccc32)c(OC)c1

- emission maximum (in CC#N): 546 nm
- emission maximum (in CCCCCC): 554 nm
- emission maximum (in CCOC(C)=O): 549 nm
- emission maximum (in CO): 548 nm
- emission maximum (in ClCCl): 551 nm
SMILES: CCc1c(C)c2n(c1C)[B-](F)(F)[N+]1=C(NCc3ccc(OC)cc3)C=CC1=C2C

- emission maximum (in C1CCOC1): 433 nm
SMILES: O=S1(=O)C(c2ccsc2)=C(c2ccsc2)c2ccccc21

- emission maximum (in ClC(Cl)Cl): 419 nm
SMILES: CC(=O)OCCN1C(=O)c2cccc3c(Oc4ccccc4C)ccc(c23)C1=O

- emission maximum (in ClCCl): 500 nm
SMILES: Cc1cc(=O)cc(-c2ccc(-c3nc4ccccn4c3NC3CCCCC3)cc2)o1

SMILES: CC(=O)c1nc(-c2ccc(N(c3ccccc3)c3ccccc3)cc2)oc1C
- emission maximum (in CC#N): 452 nm
- emission maximum (in CCCCCC): 385 nm
- emission maximum (in CCO): 468 nm
- emission maximum (in CCOC(C)=O): 419 nm
- emission maximum (in CCOCC): 408 nm
- emission maximum (in ClCCl): 448 nm

- emission maximum (in CC#N): 443 nm
- emission maximum (in CO): 445 nm
- emission maximum (in CS(C)=O): 455 nm
- emission maximum (in ClC(Cl)Cl): 445 nm
SMILES: O=C1c2ccccc2-c2cc3ccccc3c(=O)n21

- emission maximum (in CC1CCCCC1): 325 nm
- emission maximum (in CC#N): 360 nm
- emission maximum (in CO): 348 nm
SMILES: COC(=O)C(NC(=O)OC(C)(C)C)c1ccc2oc(-c3cccc(Oc4ccccc4)c3)nc2c1 (stereo unspecified)

- emission maximum (in CN(C)C=O): 537 nm
SMILES: NCCCCCCCCCCCCN1C(=O)c2ccc3c4ccc5c6c(ccc(c7ccc(c2c37)C1=O)c64)C(=O)N(CCCCCCCCCCCCN)C5=O

SMILES: O=S(=O)(c1ccc(-c2ccc3c(c2)c2ccccc2n3-c2ccccc2)cc1)c1ccc(-c2ccc3c(c2)c2ccccc2n3-c2ccccc2)cc1
- emission maximum (in C1CCCCC1): 365.07 nm
- emission maximum (in C1CCOC1): 403.28 nm
- emission maximum (in CN(C)C=O): 431.81 nm
- emission maximum (in Cc1ccccc1): 381 nm
- emission maximum (in ClC(Cl)Cl): 402.48 nm
- emission maximum (in ClCCl): 415.93 nm

- emission maximum (in ClC(Cl)Cl): 466 nm
SMILES: CC(C)(C)c1ccc2c(c1)c1cc(C(C)(C)C)ccc1n2-c1ccc2oc3nc4oc5cc(C(F)(F)F)ccc5c4cc3c2c1

- emission maximum (in CC#N): 394 nm
- emission maximum (in ClCCl): 390 nm
SMILES: CC(=O)Nc1cccc2c1C#Cc1c(cccc1C(=O)N(C)C)OCCCO2

- emission maximum (in ClCCl): 542 nm
SMILES: CCC1=C(C)C2=C(/C=C/c3ccc(OC)cc3)c3c(C)c(CC)c(C)n3[B-](F)(F)[N+]2=C1C

- emission maximum (in CC#N): 360 nm
SMILES: C(#Cc1ccccc1C#Cc1ccccc1)c1ccccc1

SMILES: Cc1ccc2c(c1)C1(c3ccccc3-c3ccccc31)c1cc(C)ccc1N2c1ccc2c(c1)Sc1ccccc1P2(=S)c1ccccc1 (stereo unspecified)
- emission maximum (in Cc1ccccc1): 454.61 nm

- emission maximum (in CC#N): 413 nm
- emission maximum (in CO): 444 nm
- emission maximum (in ClC(Cl)Cl): 410 nm
- emission maximum (in c1ccccc1): 400 nm
SMILES: COc1ccc(N2C(=O)c3ccccc3NC2C(C)(C)C)cc1 (stereo unspecified)

- emission maximum (in ClCCl): 608 nm
SMILES: COc1ccc(C2=C(C)C3=C(c4c(-c5ccccn5)nc5ccccn45)c4c(C)c(-c5ccc(OC)cc5)c(C)n4[B-](F)(F)[N+]3=C2C)cc1

- emission maximum (in C1COCCO1): 584 nm
SMILES: CC(=O)Nc1ccc(C2=C/C(=C\c3ccc(C#N)cc3)C(=O)N2)cc1

- emission maximum (in CC#N): 445 nm
SMILES: COc1ccc(-c2pc3ccccc3s2)cc1 (stereo unspecified)

- emission maximum (in C1CCOC1): 421.77 nm
SMILES: COC(=O)C1(C(=O)OC)Cc2c(C#Cc3ccc(OC)cc3)c(-c3ccc(OC)cc3)c3c(-c4ccccc4)c(-c4ccccc4)c(-c4ccccc4)c(-c4ccccc4)c3c2C1

SMILES: CCCCCCCCc1ccc(-c2ccc(/C=C(\C#N)c3ccc(-c4cccc5cccc(-c6ccc(/C(C#N)=C/c7ccc(-c8ccc(CCCCCCCC)cc8)cc7)cc6)c45)cc3)cc2)cc1
- emission maximum (in Cc1ccccc1): 491 nm

- emission maximum (in CCO): 472 nm
- emission maximum (in ClCCl): 460 nm
SMILES: CCN(CC)c1ccc2cc(C#N)/c(=N\C(=O)c3ccccc3)oc2c1

SMILES: Nc1ccc2c(C(F)(F)F)cc(=O)oc2c1
- emission maximum (in C1CCC2CCCCC2C1): 404 nm
- emission maximum (in C1CCCCC1): 401 nm
- emission maximum (in C1COCCO1): 442 nm
- emission maximum (in CC1CCCCC1): 401 nm
- emission maximum (in CC#N): 465 nm and 461 nm
- emission maximum (in CC(C)=O): 466 nm
- emission maximum (in CC(C)O): 481 nm
- emission maximum (in CCC(C)CC): 400 nm
- emission maximum (in CCCC(C)C): 399 nm
- emission maximum (in CCCCCC): 401 nm
- emission maximum (in CCCCCCCCO): 480 nm
- emission maximum (in CCCCCCO): 481 nm
- emission maximum (in CCCCO): 484 nm
- emission maximum (in CCO): 485 nm
- emission maximum (in CCOC(C)=O): 456 nm
- emission maximum (in CN(C)C=O): 480 nm
- emission maximum (in CO): 487 nm
- emission maximum (in CS(C)=O): 487 nm

- emission maximum (in ClCCl): 468 nm
SMILES: c1ccc(N(c2ccccc2)c2ccc(-c3nc4c5ccccc5c5ccccc5c4n3-c3ccccc3)cc2)cc1

- emission maximum (in ClCCl): 440 nm
SMILES: FC(F)(F)c1c(-n2c3ccccc3c3ccccc32)c(-n2c3ccccc3c3ccccc32)cc(-n2c3ccccc3c3ccccc32)c1-n1c2ccccc2c2ccccc21

SMILES: CC1(C)c2ccccc2N(c2ccc3c(c2)c(=O)c2cccc4c(=O)c5cc(N6c7ccccc7C(C)(C)c7ccccc76)ccc5n3c24)c2ccccc21
- emission maximum (in Cc1ccccc1): 549.35 nm

SMILES: O=S1(=O)C2=C(c3ccc(N(c4ccccc4)c4ccccc4)cc31)C1(C3=C(c4ccccc41)S(=O)(=O)c1cc(N(c4ccccc4)c4ccccc4)ccc13)c1ccccc12
- emission maximum (in C1CCOC1): 561 nm
- emission maximum (in CC#N): 598 nm
- emission maximum (in CCCCCC): 521 nm
- emission maximum (in Cc1ccccc1): 543 nm
- emission maximum (in ClCCl): 577 nm

- emission maximum (in CO): 581 nm
SMILES: CCN(C)c1ccc(C2=C3C(C)=CC(/C=C/c4ccc(OCC(=O)OC)cc4)=[N+]3[B-](F)(F)n3c(C)cc(C)c32)cc1

- emission maximum (in CC#N): 475 nm
- emission maximum (in CO): 492 nm
- emission maximum (in ClCCl): 474 nm
SMILES: O=C1c2ccccc2-c2c(-c3cc(Br)ccc3O)[nH]c(=O)n21

- emission maximum (in C1CCOC1): 456 nm
SMILES: COc1cc2c(cc1-c1ccncc1)Cc1c3c(c4c(c1-2)-c1cc(OC)c(-c2ccncc2)cc1C4)C(=O)N(CCC(C)C)C3=O

SMILES: c1ccc2c(c1)Oc1ccccc1B2c1ccc(N2c3ccccc3Oc3ccccc32)cc1
- emission maximum (in Cc1ccccc1): 522 nm

- emission maximum (in ClC(Cl)Cl): 422 nm
SMILES: c1ccc2c(c1)Oc1ccccc1C21c2cc(-c3ccc4ccc5cccc6ccc3c4c56)ccc2-c2ccc(-c3ccc4ccc5cccc6ccc3c4c56)cc21

- emission maximum (in CC#N): 440 nm
SMILES: Cc1ccc(C#Cc2ccc3ccc(=O)oc3c2)cc1

- emission maximum (in C1CCCCC1): 456 nm
- emission maximum (in CC#N): 568 nm
- emission maximum (in CC(C)O): 558 nm
- emission maximum (in CO): 577 nm
- emission maximum (in CS(C)=O): 583 nm
- emission maximum (in ClC(Cl)Cl): 504 nm
- emission maximum (in c1ccccc1): 484 nm
SMILES: CN(C)c1ccc2nc(-c3ccc(C(=O)OC[C@H](NC(=O)OC(C)(C)C)C(=O)OCc4ccccc4)cc3)sc2c1

- emission maximum (in ClCCl): 413 nm
SMILES: COc1ccc(-c2cn3ccc[n+]3[n-]2)cc1

- emission maximum (in ClC(Cl)Cl): 516.5 nm
SMILES: CC1=CC(C)=[N+]2C1=C(c1ccc(I)cc1)c1c(C)cc(C)n1[B-]2(Oc1ccc([N+](=O)[O-])cc1)Oc1ccc([N+](=O)[O-])cc1

- emission maximum (in ClCCl): 620 nm
SMILES: CCCCCCCCCCCCN1C(=O)c2c(c3ccc4cc(-c5ccc(N(C)C)cc5)c(OC)cc4c3c3c2ccc2cc(-c4ccc(N(C)C)cc4)c(OC)cc23)C1=O

SMILES: Cc1ccc(C2=C3C=CC(/C=C/c4ccccc4)=[N+]3[B-](F)(F)n3c(/C=C/c4ccccc4)ccc32)cc1
- emission maximum (in C1CCCCC1): 642 nm
- emission maximum (in C1CCOC1): 645 nm
- emission maximum (in C1COCCO1): 646 nm
- emission maximum (in CCOC(C)=O): 641 nm
- emission maximum (in CO): 639 nm
- emission maximum (in Cc1ccccc1): 649 nm
- emission maximum (in ClC(Cl)Cl): 647 nm

- emission maximum (in CO): 809 nm
SMILES: CC1(C)C(/C=C/C2=C(Cl)C(=C/C=C3/N(Cc4ccc(F)cc4)c4ccccc4C3(C)C)/CCC2)=[N+](Cc2ccc(F)cc2)c2ccccc21

- emission maximum (in C1CCOC1): 371 nm
SMILES: CCC1(CC)c2cc(Br)ccc2-c2c1c1c(c3c2C(CC)(CC)c2cc(-c4cccs4)ccc2-3)C(CC)(CC)c2cc(Br)ccc2-1

- emission maximum (in C1CCOC1): 591 nm
SMILES: CC(C)(C)c1ccc(C2=C(c3ccc(N(c4ccccc4)c4ccccc4)cc3)S(=O)(=O)c3c2sc(-c2ccc(N(c4ccccc4)c4ccccc4)cc2)c3-c2ccc(C(C)(C)C)cc2)cc1

SMILES: C#Cc1ccc2ccc3cccc4ccc1c2c34
- emission maximum (in C1CCCCC1): 383 nm
- emission maximum (in CC#N): 384 nm
- emission maximum (in CO): 383 nm
- emission maximum (in ClCCl): 384 nm

SMILES: Fc1c(F)c(-n2c3ccccc3c3ccccc32)c(F)c(F)c1/C=C/C(=C(c1ccccc1)c1ccccc1)c1ccccc1
- emission maximum (in Cc1ccccc1): 445 nm
